Literature values in PMC7395068, “The evolution of strategies to minimise the risk of human drug-induced liver injury (DILI) in drug discovery and development” (Archives of Toxicology, 2020).
Read-outs that look alike come from different tables or passages of the source.

Assays:
[1] = cited from earlier work
[2] = tested on: isolated mouse liver mitochondria; conditions: cited from earlier work
HepG2 cells [3] = conditions: cited from earlier work
human hepatocytes = conditions: cited from earlier work
HepG2 cells [4] = conditions: In vitro Assay; ref Persson 2013; cited from earlier work
[5] = tested on: THLE or HepG2 cells, isolated mitochondria, BSEP; conditions: cited from earlier work
[6] = cited from earlier work; remark: listed apart in the source
[7] = tested on: primary human hepatocytes, NIH3T3 fibroblasts, BSEP, CYP3A4; conditions: cited from earlier work
[8] = In vitro Assay, ref Porceddu 2012
[9] = In vitro Assay, ref O'Brien 2006
[10] = In vitro Assay, ref Schadt 2015

Row | Compound | In vivo DILI ([1]; ref O'Brien 2006) | In vivo DILI ([1]; ref Xu 2008) | Structural based (HCI) (HepG2 cells [3]; [9]) | Structural based (HCI) (human hepatocytes; In vitro Assay, ref Xu 2008) | DILI +VE (5-8), DILI -VE (-4) ([6]; ref Chen 2016) | DILI severity category ([6]; ref Chen 2016) | other results
1 | CCCCN1CCCCC1C(=O)Nc1c(C)cccc1C (centres unmarked) [bupivacaine] | -VE | -VE | +VE (lowest HCI endpoint IC50 (or in the absence of dose–response < 100 µM) < 30 × total human plasma exposure levels (Cmax.tot)) | -VE |  |  | In vivo DILI ([1]; ref Porceddu 2012): +VE; in vitro data EC2<=1x Cmax [2, 8]: -VE; in vitro data EC20<=2uM [2, 8]: -VE
2 | C[N+](C)(C)CCOP(=O)(O)OP(=O)([O-])OC[C@H]1O[C@@H](n2ccc(N)nc2=O)[C@H](O)[C@@H]1O [citicoline] | -VE |  | +VE (lowest HCI endpoint IC50 (or in the absence of dose–response < 100 µM) < 30 × total human plasma exposure levels (Cmax.tot)) |  |  |  | In vivo DILI ([1]; ref Persson 2013): -VE; Cluser analysis (HepG2 cells [4]): -VE; Structural based (HCI) (HepG2 cells [4]): -VE
3 | CCOC(=O)C(C)(C)Oc1ccc(Cl)cc1 [clofibrate] | +VE |  | +VE |  | +VE | vLess-DILI-Concern | In vivo DILI ([1]; […]): -VE; In vivo DILI ([1]; ref Aleo 2019): +VE; In vivo DILI ([1]; ref Persson 2013): +VE; Cluser analysis (HepG2 cells [4]): -VE; Structural based (HCI) (HepG2 cells [4]): -VE; Partition Hybrid HRM Score ([5]; In vitro Assay, ref Aleo 2019): +VE; Ro2 Hybrid HRM Score ([5]; In vitro Assay, ref Aleo 2019): +VE
4 | COc1cccc2c1C(=O)c1c(O)c3c(c(O)c1C2=O)C[C@@](O)(C(=O)CO)C[C@@H]3O[C@H]1C[C@H](N)[C@H](O)[C@H](C)O1 [doxorubicin] | +VE |  | +VE |  | +VE | vLess-DILI-Concern | In vivo DILI ([1]; […]): +VE; In vivo DILI ([1]; ref Porceddu 2012): +VE; In vivo DILI ([1]; ref Schadt 2015): -VE; Cellular toxicity (3T3 cells) [7, 10]: +VE; GSH adduct HML [7, 10]: -VE; Hepatocyte cellular toxicity [7, 10]: -VE; MitoTox 3T3 [7, 10]: -VE; TDI CYP3A4 [7, 10]: -VE; hBSEP inhibition [7, 10]: -VE; in vitro data EC2<=1x Cmax [2, 8]: +VE; in vitro data EC20<=2uM [2, 8]: +VE
5 | O=C1Nc2ccc(Cl)cc2[C@@](C#CC2CC2)(C(F)(F)F)O1 [efavirenz] | +VE |  | +VE (lowest HCI endpoint IC50 (or in the absence of dose–response < 100 µM) < 30 × total human plasma exposure levels (Cmax.tot)) |  | +VE | vMost-DILI-Concern | In vivo DILI ([1]; ref Persson 2013): +VE; Cluser analysis (HepG2 cells [4]): +VE; Structural based (HCI) (HepG2 cells [4]): +VE
6 | O=[N+]([O-])O[C@H]1CO[C@H]2[C@@H]1OC[C@H]2O[N+](=O)[O-] [isosorbide dinitrate] | -VE |  | +VE (lowest HCI endpoint IC50 (or in the absence of dose–response < 100 µM) < 30 × total human plasma exposure levels (Cmax.tot)) |  | -VE | vNo-DILI-Concern | In vivo DILI ([1]; ref Persson 2013): -VE; Cluser analysis (HepG2 cells [4]): -VE; Structural based (HCI) (HepG2 cells [4]): -VE
7 | NC[C@H]1O[C@H](O[C@H]2[C@H](O)[C@@H](O[C@H]3O[C@H](CO)[C@@H](O)[C@H](N)[C@H]3O)[C@H](N)C[C@@H]2N)[C@H](O)[C@@H](O)[C@@H]1O [kanamycin] |  |  |  |  |  |  | Partition Hybrid HRM Score [5]: -VE; Ro2 Hybrid HRM Score [5]: -VE; Structural based (HCI) (HepG2 cells [3]): +VE
8 | CC12CC3CC(C)(C1)CC(N)(C3)C2 [memantine] | -VE | -VE | -VE | -VE | +VE | vLess-DILI-Concern | 
9 | C=C1c2cccc(O)c2C(=O)C2=C(O)[C@]3(O)C(=O)C(C(N)=O)=C(O)[C@@H](N(C)C)[C@@H]3[C@@H](O)[C@H]12 [methacycline] | +VE | +VE | +VE (lowest HCI endpoint IC50 (or in the absence of dose–response < 100 µM) < 30 × total human plasma exposure levels (Cmax.tot)) | +VE |  |  | 
10 | O=C(O)c1cccnc1 [niacin] |  |  | -VE |  |  |  | Partition Hybrid HRM Score ([5]; In vitro Assay, ref Aleo 2019): +VE; Ro2 Hybrid HRM Score ([5]; In vitro Assay, ref Aleo 2019): -VE
11 | O=C(CCNNC(=O)c1ccncc1)NCc1ccccc1 [nialamide] | -VE |  | +VE (lowest HCI endpoint IC50 (or in the absence of dose–response < 100 µM) < 30 × total human plasma exposure levels (Cmax.tot)) |  | +VE | vMost-DILI-Concern | In vivo DILI ([1]; ref Persson 2013): -VE; Cluser analysis (HepG2 cells [4]): -VE; Structural based (HCI) (HepG2 cells [4]): -VE
12 | COC(=O)Nc1nc2ccc(C(=O)c3cccs3)cc2[nH]1 [nocodazole] | -VE | -VE | +VE (lowest HCI endpoint IC50 (or in the absence of dose–response < 100 µM) < 30 × total human plasma exposure levels (Cmax.tot)) | -VE |  |  | 
13 | CCn1cc(C(=O)O)c(=O)c2cc(F)c(N3CCNCC3)cc21 [norfloxacin] | +VE |  | +VE (lowest HCI endpoint IC50 (or in the absence of dose–response < 100 µM) < 30 × total human plasma exposure levels (Cmax.tot)) |  | +VE | vLess-DILI-Concern | 
14 | CC[C@H](C)C(=O)O[C@H]1C[C@H](O)C=C2C=C[C@H](C)[C@H](CC[C@@H](O)C[C@@H](O)CC(=O)O)[C@H]21 [pravastatin] | +VE |  | -VE |  | +VE | vLess-DILI-Concern | In vivo DILI ([1]; […]): -VE; In vivo DILI ([1]; ref Aleo 2019): +VE; In vivo DILI ([1]; ref Porceddu 2012): +VE; Partition Hybrid HRM Score ([5]; In vitro Assay, ref Aleo 2019): +VE; Ro2 Hybrid HRM Score ([5]; In vitro Assay, ref Aleo 2019): -VE; in vitro data EC2<=1x Cmax [2, 8]: -VE; in vitro data EC20<=2uM [2, 8]: -VE
15 | CCc1nc(N)nc(N)c1-c1ccc(Cl)cc1 [pyrimethamine] | +VE | +VE | +VE | +VE | +VE | vLess-DILI-Concern | In vivo DILI ([1]; ref Schadt 2015): -VE; Cellular toxicity (3T3 cells) [7]: -VE; Combined Assay [7]: -VE; GSH adduct HML [7]: -VE; Hepatocyte cellular toxicity [7]: -VE; MitoTox 3T3 [7]: -VE; TDI CYP3A4 [7]: -VE; hBSEP inhibition [7]: -VE
16 | CN(N=O)C(=O)N[C@@H](C=O)[C@@H](O)[C@H](O)[C@H](O)CO [streptozocin] | -VE |  | -VE |  | -VE | Ambiguous DILI-concern | 
17 | Cc1ncc(C[n+]2csc(CCO)c2C)c(N)n1 [thiamine] | -VE |  | +VE (lowest HCI endpoint IC50 (or in the absence of dose–response < 100 µM) < 30 × total human plasma exposure levels (Cmax.tot)) |  | -VE | vNo-DILI-Concern | In vivo DILI ([1]; ref Persson 2013): -VE; Cluser analysis (HepG2 cells [4]): -VE; Structural based (HCI) (HepG2 cells [4]): -VE
18 | Cc1ccc(S(=O)(=O)NC(=O)NN2CCCCCC2)cc1 [tolazamide] | +VE |  | +VE (lowest HCI endpoint IC50 (or in the absence of dose–response < 100 µM) < 30 × total human plasma exposure levels (Cmax.tot)) |  | +VE | vLess-DILI-Concern | 
19 | CC1(C)O[C@@H]2[C@@H](CO[C@@]3(COS(N)(=O)=O)OC(C)(C)O[C@@H]23)O1 [topiramate] | -VE |  | +VE (lowest HCI endpoint IC50 (or in the absence of dose–response < 100 µM) < 30 × total human plasma exposure levels (Cmax.tot)) |  | +VE | vLess-DILI-Concern | In vivo DILI ([1]; ref Persson 2013): -VE; Cluser analysis (HepG2 cells [4]): -VE; Structural based (HCI) (HepG2 cells [4]): -VE
20 | COc1cc(C(=O)NS(=O)(=O)c2ccccc2C)ccc1Cc1cn(C)c2ccc(NC(=O)OC3CCCC3)cc12 [zafirlukast] | +VE | +VE | +VE | -VE | +VE | vMost-DILI-Concern | In vivo DILI ([1]; […]): +VE; In vivo DILI ([1]; ref Aleo 2019): +VE; Partition Hybrid HRM Score ([5]; In vitro Assay, ref Aleo 2019): +VE; Ro2 Hybrid HRM Score ([5]; In vitro Assay, ref Aleo 2019): +VE
21 | Nc1ccn([C@H]2CC[C@@H](CO)O2)c(=O)n1 [zalcitabine] | -VE | -VE | -VE | -VE |  |  | In vivo DILI ([1]; ref Aleo 2019): +VE; Partition Hybrid HRM Score ([5]; In vitro Assay, ref Aleo 2019): -VE; Ro2 Hybrid HRM Score ([5]; In vitro Assay, ref Aleo 2019): -VE
22 | Cc1cn([C@H]2C[C@H](N=[N+]=[N-])[C@@H](CO)O2)c(=O)[nH]c1=O [zidovudine] |  |  |  |  |  |  | Partition Hybrid HRM Score [5]: -VE; Ro2 Hybrid HRM Score [5]: -VE; DILI severity category ([6]; in vivo): vMost-DILI-Concern; in vitro data EC2<=1x Cmax [2, 8]: +VE; in vitro data EC20<=2uM [2]: -VE; Structural based (HCI) (HepG2 cells [3]): +VE; Structural based (HCI) (human hepatocytes): -VE
23 | NS(=O)(=O)Cc1noc2ccccc12 [zonisamide] | -VE |  | +VE (lowest HCI endpoint IC50 (or in the absence of dose–response < 100 µM) < 30 × total human plasma exposure levels (Cmax.tot)) |  | +VE | vLess-DILI-Concern | 
24 | cyanocobalamin | -VE | -VE | -VE | -VE |  |  | In vivo DILI ([1]; ref Aleo 2019): -VE; Partition Hybrid HRM Score ([5]; In vitro Assay, ref Aleo 2019): -VE; Ro2 Hybrid HRM Score ([5]; In vitro Assay, ref Aleo 2019): -VE; DILI +VE (5-8), DILI -VE (-4) ([6]; in vivo): -VE; DILI severity category ([6]; in vivo): vNo-DILI-Concern
